Legend:
bruised finger = assay: Example 37: analgesic effect on bruised finger, topical; assay type: in vivo, human; conditions: 1% (w/v) in WEP442, topical
Text: A subject, severely bruised their left 5th finger while trying to close a basement window in their house. The pain was intense, and associated with subcutaneous hemorrhage.

[1] = system: back neck pain after cervical implant; assay: Example 90: analgesic effect on post-surgery pain and discomfort, topical; assay type: in vivo, human; conditions: 1% (w/v) in WEP442, topical
Text: A subject had painful discomfort of their back neck for 2 years caused by a surgical titanium implant of the 7th cervical vertebra 2 years earlier. During the past years, the pain and discomfort had been improved from occasional treatments with acupuncture and massage therapy. However, such treatments provided only short term relief of pain and discomfort, usually one or two pain free days after each treatment.
On one afternoon, pain and discomfort suddenly developed. The subject topically applied a composition containing 1% (w/v) of N-Ac-Tyr-Pro-Phe-Phe-NH2 (SEQ ID NO: 23) in WEP442 solution to skin of their back neck area. […] The subject was free of pain and discomfort for at least 12 hours (4+ effect).

CC(=O)N[C@@H](Cc1ccc(O)cc1)C(=O)N1CCC[C@H]1C(=O)N[C@@H](Cc1ccccc1)C(=O)N[C@@H](Cc1ccccc1)C(N)=O [N-Ac-Tyr-Pro-Phe-Phe-NH2]
pain relief (bruised finger): complete relief of pain | time to pain relief (bruised finger): ≤ 15 s | analgesic effect grade [1]: 4+ (4+ (90-100%): complete relief or eradication of pain for more than 4 hours) | duration free of pain and discomfort [1]: at least 12 hours | pain relief [1]: the pain and discomfort disappeared | time to pain relief [1]: about 5 minutes
